Consider nine compounds from paper PMC8387444 (Bioorganic chemistry, 2021).

The first test deals with T1, human CRFR1 (Homo sapiens, UniProt P34998).
T1 sequence (P34998 24-415): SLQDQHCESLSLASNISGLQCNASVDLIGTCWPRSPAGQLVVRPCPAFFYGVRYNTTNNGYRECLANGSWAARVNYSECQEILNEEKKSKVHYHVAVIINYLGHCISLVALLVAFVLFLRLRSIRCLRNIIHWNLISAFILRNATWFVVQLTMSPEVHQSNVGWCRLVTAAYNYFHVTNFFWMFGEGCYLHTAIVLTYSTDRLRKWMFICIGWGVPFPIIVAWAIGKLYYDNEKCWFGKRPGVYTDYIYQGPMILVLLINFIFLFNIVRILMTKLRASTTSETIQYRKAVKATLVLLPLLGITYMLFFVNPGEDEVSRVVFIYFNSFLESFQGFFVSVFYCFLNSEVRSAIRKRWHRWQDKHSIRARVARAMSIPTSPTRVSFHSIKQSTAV
Format: binding.
Settings: not given
As usually defined, the Ki is a measure of affinity in units of concentration, obtained from inhibition or displacement. A high value points to lower affinity. For the compound `CCN(CC)c1nc(C)nc2c1sc(=S)n2-c1ccc(OC)cc1OC` [5b, 7-(Diethylamino)-3-(2,4-dimethoxyphenyl)-5-methylthiazolo[4,5-d]pyrimidine-2(3H)-thione], the Ki worked out at 84.5 nM.
The same measure, in the same setting: with `CCCCN(CCCC)c1nc(C)nc2c1sc(=S)n2-c1ccc(OC)cc1OC` [5d, 7-(Dibutylamino)-3-(2,4-dimethoxyphenyl)-5-methylthiazolo[4,5-d]pyrimidine-2(3H)-thione] the figure was 91.2 nM; with `CCCCN(CC)c1nc(C)nc2c1sc(=S)n2-c1ccc(OC)cc1OC` [5e, 7-(Butyl(ethyl)amino)-3-(2,4-dimethoxyphenyl)-5-methylthiazolo[4,5-d]pyrimidine-2(3H)-thione], 170 nM; with `CCCN(CCC)c1nc(C)nc2c1sc(=O)n2-c1ccc(OC)cc1OC` [8c, 3-(2,4-Dimethoxyphenyl)-7-(dipropylamino)-5-methylthiazolo[4,5-d]pyrimidin-2(3H)-one], 32.1 nM.
Same read-out and setting: with `CCCCN(CC)c1nc(C)nc2c1c(C)c(C)n2-c1c(C)cc(C)cc1C` [antalarmin, reference compound] the figure was 16.2 nM.

Staying with this test, now noted: read-out: Inhibition of [125I]-Tyr0-sauvagine specific binding.
A word on the inhibition: it is the drop in the measured response relative to a control, in per cent. Turning to `CCCNc1nc(C)nc2c1sc(=S)n2-c1ccc(OC)cc1OC` [5a, 3-(2,4-Dimethoxyphenyl)-5-methyl-7-(propylamino)thiazolo[4,5-d]pyrimidine-2(3H)-thione], the inhibition at 0.5 µM is below 50%.
`CCN(CC)c1nc(C)nc2c1sc(=S)n2-c1ccc(OC)cc1OC` [5b, 7-(Diethylamino)-3-(2,4-dimethoxyphenyl)-5-methylthiazolo[4,5-d]pyrimidine-2(3H)-thione]: the inhibition at 0.5 µM was above 50%.
On the same count and under the same terms, for `CCCCN(CCCC)c1nc(C)nc2c1sc(=S)n2-c1ccc(OC)cc1OC` [5d, 7-(Dibutylamino)-3-(2,4-dimethoxyphenyl)-5-methylthiazolo[4,5-d]pyrimidine-2(3H)-thione] the value was above 50%.
Same read-out and setting: for `CCCCN(CC)c1nc(C)nc2c1sc(=S)n2-c1ccc(OC)cc1OC` [5e, 7-(Butyl(ethyl)amino)-3-(2,4-dimethoxyphenyl)-5-methylthiazolo[4,5-d]pyrimidine-2(3H)-thione] the value was above 50%; for `CCCNc1nc(C)nc2c1sc(=O)n2-c1ccc(OC)cc1OC` [8a, 3-(2,4-Dimethoxyphenyl)-5-methyl-7-(propylamino)thiazolo[4,5-d]pyrimidin-2(3H)-one], below 50%; for `CCN(CC)c1nc(C)nc2c1sc(=O)n2-c1ccc(OC)cc1OC` [8b, 7-(Diethylamino)-3-(2,4-dimethoxyphenyl)-5-methylthiazolo[4,5-d]pyrimidin-2(3H)-one], below 50%.
On the same count and under the same terms, with `CCCN(CCC)c1nc(C)nc2c1sc(=O)n2-c1ccc(OC)cc1OC` [8c, 3-(2,4-Dimethoxyphenyl)-7-(dipropylamino)-5-methylthiazolo[4,5-d]pyrimidin-2(3H)-one] the figure was above 50%.
As to `CCCCN(CCCC)c1nc(C)nc2c1sc(=O)n2-c1ccc(OC)cc1OC` [8d, 7-(Dibutylamino)-3-(2,4-dimethoxyphenyl)-5-methylthiazolo[4,5-d]pyrimidin-2(3H)-one], the inhibition at 0.5 µM was below 50%.

Staying with this test, now noted: relative to antalarmin.
On to `CCN(CC)c1nc(C)nc2c1sc(=S)n2-c1ccc(OC)cc1OC` [5b, 7-(Diethylamino)-3-(2,4-dimethoxyphenyl)-5-methylthiazolo[4,5-d]pyrimidine-2(3H)-thione], for which the “Binding affinity fold lower than that of antalarmin” value is recorded as 5 fold.
Same read-out and setting: with `CCCCN(CCCC)c1nc(C)nc2c1sc(=S)n2-c1ccc(OC)cc1OC` [5d, 7-(Dibutylamino)-3-(2,4-dimethoxyphenyl)-5-methylthiazolo[4,5-d]pyrimidine-2(3H)-thione] the figure was 6 fold.
The same measure, in the same setting: with `CCCCN(CC)c1nc(C)nc2c1sc(=S)n2-c1ccc(OC)cc1OC` [5e, 7-(Butyl(ethyl)amino)-3-(2,4-dimethoxyphenyl)-5-methylthiazolo[4,5-d]pyrimidine-2(3H)-thione] the figure was 10 fold; with `CCCN(CCC)c1nc(C)nc2c1sc(=O)n2-c1ccc(OC)cc1OC` [8c, 3-(2,4-Dimethoxyphenyl)-7-(dipropylamino)-5-methylthiazolo[4,5-d]pyrimidin-2(3H)-one], 2 fold.

In a further test the target is T1, human CRFR1.
Settings: not given
The source holds these as a separate data set.
Usually IC50 stands for the concentration that inhibits the measured activity by half. As for `CCCN(CCC)c1nc(C)nc2c1sc(=O)n2-c1ccc(OC)cc1OC` [8c, 3-(2,4-Dimethoxyphenyl)-7-(dipropylamino)-5-methylthiazolo[4,5-d]pyrimidin-2(3H)-one], it took 2150 nM to reach half-maximal inhibition (IC50).
The same measure, in the same setting: for `CCCCN(CC)c1nc(C)nc2c1c(C)c(C)n2-c1c(C)cc(C)cc1C` [antalarmin, reference compound] the value was 26 nM.

The same test, now with this note: relative to antalarmin.
As for `CCCN(CCC)c1nc(C)nc2c1sc(=O)n2-c1ccc(OC)cc1OC` [8c, 3-(2,4-Dimethoxyphenyl)-7-(dipropylamino)-5-methylthiazolo[4,5-d]pyrimidin-2(3H)-one], the “Times less potent than antalarmin to inhibit CRF-stimulated cAMP accumulation” value is 100 times.
